Data set [1] can be described thus: AUC (0 to infinity) in healthy human at 2000 mg, iv administered as single dose as 1 hr iv infusion. The following applies: plasma. Format: ADME, organism-based. Set-up: dose 2000 mg, route intravenous, time infinity.
Data set [2] can be described thus: Clearance in healthy human at 2000 mg, iv administered as single dose as 1 hr iv infusion. Format: ADME, organism-based. The note with it: in vivo.
Data set [3] is described as follows: Volume of distribution at steady state in healthy human at 2000 mg, iv administered as single dose as 1 hr iv infusion. In kind it is ADME, organism-based. The following applies: in vivo.
Data set [4] has as its system Homo sapiens. The data set can be described thus: Toxicity in healthy human assessed as occurrence of abdominal pain at 1000 mg, iv administered as single dose as 1 hr iv infusion. In kind it is organism-based, Abdomen. The note with it: in vivo.
The subject of data set [5] is Homo sapiens. The data set can be described thus: Toxicity in healthy human assessed as occurrence of nausea at 1000 mg, iv administered as single dose as 1 hr iv infusion. The following applies: in vivo. In kind it is organism-based.
The test system of data set [6] is Homo sapiens. The data set can be described thus: Toxicity in healthy human assessed as occurrence of vulvo-vaginal pruritus at 1500 mg, iv administered as single dose as 1 hr iv infusion. Format: organism-based. The following applies: in vivo.
Data set [7] deals with Homo sapiens. The data set can be described thus: Toxicity in healthy human assessed as occurrence of hypoaesthesia at 500 mg, iv administered as 1 hr infusion every 8 hrs for 10 days. Format: organism-based. The note with it: in vivo.
A short description of data set [8]: Cmax in healthy human at 1000 mg, iv administered as 1 hr infusion every 8 hrs for 10 days measured on day 10. Format: ADME, organism-based. Also on record: dose 1000 mg, route intravenous. The note with it: in vivo.
Data set [9] is described as follows: Cmax in healthy human at 1500 mg, iv administered as 1 hr infusion every 12 hrs for 10 days measured on day 1. In kind it is ADME, organism-based. Set-up: dose 1500 mg, route intravenous. The following applies: in vivo.
Data set [10] in a line: Tmax in healthy human at 1500 mg, iv administered as 1 hr infusion every 12 hrs for 10 days measured on day 10. Format: ADME, organism-based. The note with it: in vivo.
Data set [11] in a line: Renal clearance in healthy human at 500 mg, iv administered as 1 hr infusion every 8 hrs for 10 days measured on day 10. Format: ADME, organism-based, Kidney. The note with it: in vivo, read-out: CL_renal.
Data set [12] can be described thus: Renal clearance in healthy human at 1000 mg, iv administered as 1 hr infusion every 8 hrs for 10 days measured on day 1. In kind it is ADME, organism-based, Kidney. The note with it: in vivo, read-out: CL_renal.
Data set [13] is described as follows: Renal clearance in healthy human at 1500 mg, iv administered as 1 hr infusion every 12 hrs for 10 days measured on day 1. In kind it is ADME, organism-based, Kidney. The note with it: in vivo, read-out: CL_renal.
Data set [14] is described as follows: Drug recovery in urine of healthy human at 1500 mg, iv administered as 1 hr infusion every 12 hrs for 10 days measured on day 10. In kind it is ADME, organism-based. The note with it: read-out: Activity.

The AUC(0-inf) is the area under the concentration-time curve extrapolated to infinity. A high value points to high exposure. As a reminder, the clearance is the volume of plasma or blood freed of the substance per unit of time. Broadly, the Vd is a proportionality between amount in the body and measured concentration, not a real space. A lower Vd goes with confinement near the circulation. As usually defined, the Cmax is the peak of the concentration-time curve. The Tmax is the time at which the peak concentration occurs. `Cn1c(N)c(NC(=O)NCCN)c[n+]1CC1=C(C(=O)O)N2C(=O)[C@@H](NC(=O)/C(=N\OC(C)(C)C(=O)[O-])c3nsc(N)n3)[C@H]2SC1` [CEFTOLOZANE] came in with an AUC(0-inf) in data set [1] of 344 µg·h/mL. For the same molecule, the clearance in data set [2] is 96.9 mL/min. Further, in data set [3], the Vd was 14.8 L. Besides, the Activity entry in data set [4], in [5], in [6] and in [7] was “Non-toxic” throughout. The Cmax was 58 µg/mL in [8] and 85.4 µg/mL in [9]. Moreover, the Tmax in [10] is 1 h. The CL renal in data set [11] was 87.6 mL/min; in data set [12], 112 mL/min; in data set [13], 119 mL/min. Besides, the dose excreted at 10 day in [14] was determined as 105%.

(Values after ChEMBL document CHEMBL1275247, “Pharmacokinetics and safety of CXA-101, a new antipseudomonal cephalosporin, in healthy adult male and female subjects receiving single- and multiple-dose intravenous infusions” (Antimicrob Agents Chemother, 2010).)
